Results on one compound are retold here after patent publication US6964870B2, “Enhanced selection of genetically modified pine embryogenic tissue” (MeadWestvaco Corporation, priority 2000, dated 2005).

Holding throughout (type): cell-based
The subject of experiment [1] is embryogenic lines of crosses with P. taeda selection 7-56. Briefly: Recovery of transformants from elite crosses with ABA in selection media (Agrobacterium and bombardment experiments).
Experiment [2] concerns Loblolly pine (Pinus taeda) embryogenic cell lines. Briefly: Biolistic transformation and selection of transformed sublines with or without ABA in the selection medium (Example 1). An excerpt:
To prepare for gene transfer, a sterile fabric support (in this example PECAP® fabric support, commercially available from SEFAR Inc.) was placed in a sterile Buchner funnel and one to five milliliters of embryogenic suspension was pipetted onto the fabric support such that the embryogenic tissue was evenly distributed over the surface. The liquid medium was suctioned from the tissues using a mild vacuum. The fabric support with embryogenic tissue was removed from the Buchner funnel and placed on a GELRITE® gelling agent solidified DCR3 preparation medium (Table 2) in 100×25 mm plastic petri dishes. Dishes were incubated in a dark growth chamber at 23°±2° C. for about 24-48 hours.
DNA was transferred into the tissues by the biolistic method described in U.S. patent application Ser. No. 09/318,136 filed on 25 May 1999 and New Zealand Patent No. 336149, each incorporated herein by reference, using the PDS-1000/He BIOLISTICS® Particle Delivery System (available from Bio-Rad Laboratories). The DNAs of interest, here containing the visual marker gene uidA and the selection gene nptII, were precipitated onto the surface of gold microparticles, which were subsequently accelerated toward embryogenic tissue to penetrate the cell walls. Once inside the cells, DNA is released from the carrier particles and integrated randomly into the chromosomes.
The petri dishes with the fabric support and embryonic tissues were then placed into the interior of the PDS 1000/He BIOLISTICS® device and vacuum applied to a level of 28 inches Hg. The gold particles carrying the DNA were accelerated toward the embryogenic tissue following a helium build-up and bursting regulated by a 1550 psi rupture disk. In the PDS-1000/He BIOLISTICS® device the gap between the rupture disk and the macrocarrier (gap distance) was five mm and the macrocarrier travel distance was 13 mm. Following DNA transfer the petri dishes containing the fabric support and tissues were incubated in a dark growth chamber at 23°±2° C. for about 24 hours. The tissues and fabric support were transferred to semi-solid maintenance medium, DCR1 (Table 2) to recover from carrier particle bombardment and incubated in a dark growth chamber at 23°±2° C. for a period of about seven days. The tissues and fabric support were transferred to a selection medium, semi-solid maintenance medium DCR1 containing a level of selection agent inhibitory to the growth of non-transformed cells. In this and subsequent examples the selection agent used was GENETICIN® antibiotic at 15-30 mg/l. The plates were incubated in a dark growth chamber at 23°±2° C. for about six to twelve weeks with the fabric supports containing the tissues being transferred to the same fresh culture medium every 2-3 weeks. […]

For experiment [3], the system named is loblolly pine cell lines or hybrid cell lines. Briefly: ABA in culture media during and after co-cultivation with Agrobacterium, all lines (Example 4). An excerpt:
Seven loblolly pine cell lines or hybrid cell lines from seven widely diverse genetic backgrounds were used in this experiment. To prepare for gene transfer using Agrobacterium, fabric supports were sterilized by autoclaving and placed in a sterile Buchner funnel, and one to five milliliters of embryogenic suspension was pipetted onto each support such that the embryogenic tissue was evenly distributed over its surface. Following this the liquid medium was suctioned from the tissues and each support bearing the embryogenic tissue was placed on gelled medium for inoculation by Agrobacterium. In this case the medium used was the same as the preparation medium described in Example 1 above, except that the medium, used here for preparation and co-cultivation of the cells, contained ABA at 0, 10, or 30 mg/L as an experimental condition. Genes were then introduced into the plant material by co-cultivation with Agrobacterium(Wenck et al. 1999). Specifically, gene constructs containing a reporter gene and a selectable marker were introduced into Agrobacterium tumefaciens strain EHA105 with the virulence-enhancing plasmid pTOK47 (Wenck et al. 1999), by techniques well known to those skilled in the art, and virulence was then induced with administration of acetosyringone by commonly used techniques, well known to those skilled in the art, whereupon the induced Agrobacterium was dripped over the plant material and these were co-cultivated in the dark at 23°±2° C. for approximately 24-72 hours. Those skilled in the art recognize that many different gene constructs, plasmids, strains, media, and co-cultivation times and protocols would be suitable for use in the present method.
Supports bearing approximately 0.1 g of embryogenic tissue were divided onto recovery media (having the same formulation as the maintenance medium except for the addition of 400 mg/L TIMENTIN® antibiotic) either containing or lacking ABA. […] Concentrations of ABA used in all these media were 0, 10, and 30 mg/l.
Cells were maintained on the selection media, with transfer of the polyester support membranes to fresh selection media of the same composition, every two weeks for a total of eight weeks of selection. Cells from actively growing sublines from selection were examined using stereomicroscopes for the expression of the visual marker gene uidA at the conclusion of the selection period. All of the sublines capable of active growth on selection medium were seen to express levels of the visual marker gene product that enabled them to be readily distinguished from non-selected cells. This continuing expression of the transgenes after at least twelve weeks following bombardment confirmed the integration of the transgenes in these sublines. […]

For the compound `CC1=CC(=O)CC(C)(C)[C@@]1(O)/C=C/C(C)=C\C(=O)O` [ABA, abscisic acid], the “lines attempted from which transformants recovered” value is “more than 80%” in experiment [1] (cross 7-56×9-6, ABA in the selection media) and “more than 80%” in experiment [1] (crosses with elite P. taeda selection 7-56 as a parent, ABA in selection media, media containing 5-30 mg/L ABA). The figures for the “stable transformants after nine weeks of selection” value in experiment [2] (10 mg/L ABA in medium only during the first three weeks of selection) and in experiment [2] (ABA in selection medium throughout the entire nine-week selection period) were “Stable transformants were detected” and “more transformants were detected”, respectively. In experiment [2] (ABA in the selection medium vs none), the “transformants from a cell line of an elite family, progeny of P. taeda elite line 7-56” value is “observed only on treatments that had contained ABA in the selection medium”. In experiment [2] (ABA present during the entire period of transfer, all lines tested), the “number of transformants obtained” value is recorded as “equal to or greater than the number obtained for any other treatment”. Also, the “necrotic foci in somatic embryogenic masses” value in experiment [3] (10 or 30 mg/L ABA during and after co-cultivation with Agrobacterium vs media without ABA, all lines) is recorded as “fewer necrotic foci”. For the same compound, the results for the “effect on observation of transformants” value in experiment [3] (10 or 30 mg/l ABA in the preparation medium) and in experiment [3] (ABA in the recovery medium) were “neutral or beneficial” and “similarly neutral or beneficial”, respectively. The “doubling of somatic embryogenic masses” value in experiment [3] (ABA in recovery medium after co-cultivation with Agrobacterium vs no ABA, certain P. taeda lines and hybrids) is “able to double more rapidly”.
